{"source": "patent US11427609B2", "about": "“Glycosidic derivatives of treprostinil” (AOP ORPHAN IP AG, priority 2017, dated 2022)", "origin": "cited, not measured here"}
{"smiles": "CCCCC[C@H](O)CC[C@@H]1[C@H]2Cc3cccc(OCC(=O)O)c3C[C@H]2C[C@H]1O", "note": "[Treprostinil]", "values": [{"measurement": "bioavailability", "setting": "Remodulin, subcutaneous or intravenous infusion", "value": "~100", "unit": "%"}, {"measurement": "biological half-life", "setting": "human organism", "value": "4.4-4.6 hours"}, {"measurement": "excretion in feces", "setting": "in vivo", "value": 13, "unit": "%"}, {"measurement": "urinary excretion as identified metabolites", "setting": "in vivo", "value": 64, "unit": "%"}, {"measurement": "urinary excretion as unmetabolized treprostinil", "setting": "in vivo", "value": 4, "unit": "%"}, {"measurement": "urinary excretion", "setting": "total", "value": 79, "unit": "%"}]}
